{
  "source": "paper PMC5855801",
  "about": "“Benzothiophenone Derivatives Targeting Mutant Forms of Estrogen Receptor-α in Hormone-Resistant Breast Cancers” (International Journal of Molecular Sciences, 2018)",
  "key": {"ERα-LBD and SRC-3": {"molecular_target": "T1, ERα-LBD and SRC-3 (Homo sapiens, UniProt P03372)", "T1 construct": "generated by cloning the LBD of ERα into the pACT vector; expressed in transfected cells; host or cells: MDA-MB-231", "T1 sequence (P03372 311-547 limits assumed)": "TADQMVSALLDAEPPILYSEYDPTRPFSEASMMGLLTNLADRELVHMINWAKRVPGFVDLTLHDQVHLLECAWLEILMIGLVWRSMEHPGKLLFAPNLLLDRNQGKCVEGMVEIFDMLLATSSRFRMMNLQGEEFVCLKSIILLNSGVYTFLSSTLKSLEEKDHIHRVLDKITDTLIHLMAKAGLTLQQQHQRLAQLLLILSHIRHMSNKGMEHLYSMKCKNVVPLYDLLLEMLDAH", "test": "Mammalian two-hybrid assay in MDA-MB-231 cells", "format": "cell-based", "conditions": "1 nM E2, 24 h, read-out: IC50 for interaction between ERα-LBD and SRC-3 fusion proteins", "method": "The direct effect of VPC-16606 on ERα-co-activator recruitment was assessed by the mammalian two-hybrid system (Promega, Madison, WI, USA). MDA-MB-231 cells were transfected with pACT-ERα-LBD, pBIND-Steroid receptor coactivator protein-3 (pBIND-SRC-3), a luciferase reporter plasmid containing a GAL4 recognition sequence and a constitutively-active Renilla reporter plasmid. The cells were treated with a […] dilution of VPC-16606 starting at 50 µM.\nFor the mammalian two hybrid assay, the CheckMate^TM Mammalian Two-Hybrid System (Promega, Madison, WI, USA) was used. The pACT-ERα-LBD construct was generated by cloning the LBD of ERα into the pACT vector to produce the ERα-LBD protein fused to the VP16 activation domain. The SRC-3 coactivator peptide (aa 614–698) containing LXXLL (L, leucine; X, any amino acid) motifs 1 and 2 was cloned into the pBIND vector to generate the pBIND-SRC-3 construct expressing the SRC-3 protein fused to the GAL4-DNA binding domain. Full-length human ERα (hERαWT) was encoded on a pcDNA3.1 expression plasmid. Point mutations in the LBD were generated with the QuikChange mutagenesis kit (Stratagene, San Diego, CA, USA) using the hERαWT template. […]\nMDA-MB-231 cells were seeded on 96-well plates (2 × 10^4 cells/well) in 150 µL of medium. […] After 24 h, the cells were lysed and luminescence was measured as for the luciferase transcriptional assay described above."}, "[1]": {"system": "mutant ERα (L536Q, Y537S, Y537C, Y537N, D538G, Y537S/D538G, S463P/Y537N)", "test": "Luciferase reporter assay with mutant ERα in transfected MDA-MB-231 cells", "format": "cell-based, human", "conditions": "all seven mutant forms, two-fold dilution starting at 50 µM, read-out: IC50 against constitutively-active mutant forms of ERα (luciferase)", "method": "Figure 5 Predicted MD simulations and experimental effect of VPC-16606 on mutant forms of ERα. […] (C) E2 responsiveness of the synthesized mutants. (D) pcDNA3.1 plasmid encoding either the full-length WT or mutant forms of ERα was transfected into MDA-MB-231 cells along with the 3X-ERE-TATA luciferase reporter plasmid. The cells were treated with a two-fold dilution of VPC-16606 starting at 50 µM. […] Data points are expressed as the percentage of luciferase activity relative to DMSO control. Data were fitted using the log10 of concentration of the inhibitors vs. the response with GraphPad Prism 6. Error bars indicate the standard error of the mean (SEM) for 3 independent experiments performed in triplicates.\nTo test this hypothesis, a site-directed mutagenesis study was initiated on WT-ERα. MDA-MB-231 cells that were transfected with plasmids encoding either WT or mutant ERα (L536Q, Y537S, Y537C, Y537N, D538G, Y537S/D538G, S463P/Y537N) along with an E2-responsive luciferase reporter plasmid and a constitutively-active Renilla reporter plasmid. The cells were treated with VPC-16606 with two-fold dilution starting at 50 µM. […] This is particularly important because they corroborate the idea that such clinically-relevant mutant forms of the receptor, which cause the receptor to be E2 independent, can be inhibited by targeting an alternative functional site on the receptor. […]"}, "T47D cells": {"system": "T47D cells", "test": "Presto Blue cell viability assay, T47D", "format": "cell-based, human", "conditions": "96 h, two-fold dilution starting at 50 µM", "method": "The Presto Blue cell viability assay was used to assess the growth inhibitory potential of VPC-16606 on ERα^+ T47D, MCF7, ZR75-1 and TamR3 cells. They were treated for 96 h with a two-fold dilution range of the compound starting at 50 µM.\nCell viability was determined using the Presto Blue cell viability assay (Thermo Fisher Scientific, Waltham, MA, USA). Cells were seeded in clear bottom black-walled 96-well plates at a density of 5 × 10^3 cells/well in 100 μL of their respective media. On the following day, the cells were treated with test compounds (0.001–22.5 μM) in the presence of 1 nM E2 and incubated at 37 °C. After 96 h, 30 μL of Presto Blue reagent was added and incubated for 10 min at 37 °C. The fluorescent signal from viable cells was measured at 590 nm."}},
  "data": [
    {"smiles": "CC(=O)N(/N=C1\\Sc2c(C)cccc2C1=O)c1ccccc1Cl", "note": "[VPC-16606]", "values": [
      {"measurement": "IC50", "setting": "ERα-LBD and SRC-3", "result": 0.8, "unit": "µM"},
      {"measurement": "IC50", "setting": "[1]", "result": "0.5 to 1", "unit": "µM"},
      {"measurement": "Cell growth (Presto Blue viability)", "setting": "T47D cells", "result": "significantly reduce the growth"}
    ]}
  ]
}
